Experiments:
Human V1b receptor [1] = molecular target: T1, Human V1b receptor (Homo sapiens, UniProt P47901); assay: Measurement of V1b receptor antagonistic activity (AVP-induced fluorescence, Fluo-4, FDSS); format: cell-based; set-up: expressed in transfected cells
T1 sequence (P47901 1-424): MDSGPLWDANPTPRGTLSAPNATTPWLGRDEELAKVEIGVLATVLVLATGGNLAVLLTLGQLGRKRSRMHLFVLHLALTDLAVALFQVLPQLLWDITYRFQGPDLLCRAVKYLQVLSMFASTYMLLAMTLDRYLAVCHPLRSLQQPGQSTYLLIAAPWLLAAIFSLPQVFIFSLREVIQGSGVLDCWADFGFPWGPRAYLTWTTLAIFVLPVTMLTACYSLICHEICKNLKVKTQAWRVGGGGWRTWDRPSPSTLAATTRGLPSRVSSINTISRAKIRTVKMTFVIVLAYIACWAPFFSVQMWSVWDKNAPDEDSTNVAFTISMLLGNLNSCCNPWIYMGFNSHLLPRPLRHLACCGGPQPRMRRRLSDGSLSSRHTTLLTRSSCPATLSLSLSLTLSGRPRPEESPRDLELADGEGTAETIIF
Experimental: Measurement of V1b Receptor Antagonistic Activity
CHO cells (ATCC) stably expressing human V1b receptor were cultured in Ham's F-12 medium (containing 10% FBS and 0.5 mg/mL Geneticin). The cells were seeded the day before the test at 20,000 cells/well in a 96-well poly-D-lysine coated black plate. On the day of the test, the culture medium was removed, and a loading solution (1×HBSS, 10 mmol/L HEPES, 0.1% bovine serum albumin, 1.25 mmol/L Probenecid, 0.02% Pluronic F-127, 1.5 μmol/L Fluo-4-AM, pH 7.4) was added to each well, followed by incubation in a CO2 incubator for 1 hour. After the incubation, the loading solution was removed. A test solution (1×HBSS, 10 mmol/L HEPES, 0.1% bovine serum albumin, 1.25 mmol/L Probenecid, pH 7.4) containing any one of test compounds was added to wells, followed by incubation in a CO2 incubator for 30 minutes. The test compound was serially diluted with DMSO so as to be assayed at a final concentration of 0.1 nmol/L to 1 μmol/L. After the incubation, measurement of fluorescence intensity levels and addition of AVP were performed with Functional Drug Screening System (FDSS, Hamamatsu Photonics K.K.). […] The fluorescence level in the well not containing any test compound and AVP was defined as 0%, and the fluorescence level in the well not containing any test compound but containing AVP was defined as 100%. A dose-response curve was plotted from fluorescence levels after the addition of AVP in the presence of a test compound at various concentrations, and the 50% inhibitory concentration (IC50 value) of the compound was calculated.

Human V1b receptor [2] = molecular target: T1, Human V1b receptor; assay: Binding test for V1b receptor ([3H]AVP displacement, crude membrane preparation); set-up: expressed in transfected cells; host or cells: 293FT cells (Invitrogen), transient expression; crude membrane preparation; conditions: [3H]AVP 0.4 to 1 nmol/L; membranes of 293FT cells transiently expressing human V1b receptor; room temperature, 60 minutes
Outline: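 Crude membranes from 293FT cells transiently expressing human V1b, in 50 mmol/L Tris-HCl pH 7.4 with 10 mmol/L MgCl2 and 0.1% BSA, incubated with compound (0.01 nmol/L–1 μmol/L) and [3H]AVP (0.4–1 nmol/L) for 60 min at room temperature. Filter-bound radioactivity counted; 10 μmol/L unlabeled AVP defined 0%. IC50 from dose-response curve.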

[3] = CHO cells stably expressing human V1b receptor, AVP 2.5 nmol/L, 30 minutes preincubation, read-out: IC50 value (V1b receptor antagonistic activity)

Compound `CC(C)NC(=O)Cn1c(-c2cccc(Cl)c2)nn(-c2ccc(CCN3C4CCC3CC(O)C4)cc2)c1=O` (centres unmarked) [Aa-8, 2-[3-(3-Chlorophenyl)-1-{4-[2-(3-hydroxy-8-azabicyclo[3.2.1]oct-8-yl)ethyl]phenyl}-5-oxo-1,5-dihydro-4H-1,2,4-triazol-4-yl]-N-(propan-2-yl)acetamide] has an IC50 (Human V1b receptor [1]; [3]) of 23 nM and an IC50 (Human V1b receptor [2]) of 4.1 nM.
Compound `CC(C)NC(=O)Cn1c(-c2ccc(F)c(Cl)c2)nn(-c2ccc(CCN3C4CCC3COC4)cc2)c1=O` [Da-5, 2-[3-(3-Chloro-4-fluorophenyl)-1-{4-[2-(3-oxa-8-azabicyclo[3.2.1]oct-8-yl)ethyl]phenyl}-5-oxo-1,5-dihydro-4H-1,2,4-triazol-4-yl]-N-(propan-2-yl)acetamide] has an IC50 (Human V1b receptor [1]; [3]) of 6 nM and an IC50 (Human V1b receptor [2]) of 2.5 nM.
`CC(C)NC(=O)Cn1c(-c2ccc(F)c(Cl)c2)nn(-c2ccc(CCN3C4CCC3CC(O)C4)cc2)c1=O` (centres unmarked) [Da-6, 2-[3-(3-Chloro-4-fluorophenyl)-1-{4-[2-(3-hydroxy-8-azabicyclo[3.2.1]oct-8-yl)ethyl]phenyl}-5-oxo-1,5-dihydro-4H-1,2,4-triazol-4-yl]-N-(propan-2-yl)acetamide] gave an IC50 (Human V1b receptor [1]) of 12 nM and an IC50 (Human V1b receptor [2]) of 4.4 nM.
`CC(C)NC(=O)Cn1c(-c2ccc(F)c(Cl)c2)nn(-c2ccc(CCN3CCOCC3)cc2)c1=O` [Da-2, 2-[3-(3-Chloro-4-fluorophenyl)-1-{4-[2-(morpholin-4-yl)ethyl]phenyl}-5-oxo-1,5-dihydro-4H-1,2,4-triazol-4-yl]-N-(propan-2-yl)acetamide] showed an IC50 (Human V1b receptor [1]; [3]) of 6.3 nM and an IC50 (Human V1b receptor [2]) of 4.3 nM.
Work on `COc1cc(-c2nn(-c3ccc(CCN4C5CCC4CC(O)C5)cc3)c(=O)n2CC(=O)NC(C)C)ccc1F` (centres unmarked) [Ca-3, 2-[3-(4-Fluoro-3-methoxyphenyl)-1-{4-[2-(3-hydroxy-8-azabicyclo[3.2.1]oct-8-yl)ethyl]phenyl}-5-oxo-1,5-dihydro-4H-1,2,4-triazol-4-yl]-N-(propan-2-yl)acetamide] yielded an IC50 (Human V1b receptor [1]; [3]) of 16 nM and an IC50 (Human V1b receptor [2]) of 6 nM.
Work on `COc1cc(-c2nn(-c3ccc(CCN4CCOCC4)cn3)c(=O)n2CC(=O)NC(C)C)ccc1F` [Cb-2, 2-[3-(4-Fluoro-3-methoxyphenyl)-1-{5-[2-(morpholin-4-yl)ethyl]pyridin-2-yl}-5-oxo-1,5-dihydro-4H-1,2,4-triazol-4-yl]-N-(propan-2-yl)acetamide] yielded an IC50 (Human V1b receptor [1]; [3]) of 26 nM and an IC50 (Human V1b receptor [2]) of 17 nM.
With `CC(C)NC(=O)Cn1c(-c2cccc(Cl)c2)nn(-c2ccc(CCN3CCOCC3)cn2)c1=O` [Ab-2, 2-[3-(3-Chlorophenyl)-1-{5-[2-(morpholin-4-yl)ethyl]pyridin-2-yl}-5-oxo-1,5-dihydro-4H-1,2,4-triazol-4-yl]-N-(propan-2-yl)acetamide] the IC50 (Human V1b receptor [1]; [3]) was 13 nM and the IC50 (Human V1b receptor [2]) was 41 nM.

— patent US9193695B2, “1, 2, 4-triazolone derivative and use thereof as an antagonist on the arginine-vasopressin 1B receptor” (TAISHO PHARMACEUTICAL CO., LTD., priority 2010, dated 2015)
